| melting point [°C] | SMILES |
| --- | --- |
| 103 | CS(=O)(=O)NC(=O)CCCCCCCCCCCNC(=O)NC12CC3CC(CC(C3)C1)C2 |
| 168 to 169 | CCOCc1nc2c(N)nc3cc(-n4ccnc4)ccc3c2n1CCCOC |
| 108 to 111 | CCN(C#N)C(=O)C(C)Oc1ccc(Oc2cnc3cc(F)ccc3n2)cc1 (stereo not given) |
| 94 to 96 | CC(C)Oc1ccc(-n2c(C(=O)NCC(=O)O)c(Cl)c3cc(Oc4ccc(C(F)(F)F)cc4)ccc32)cc1 |
| 123 to 124 | Cc1c(C)n(CC2CC2)c2c(OCc3ccccc3)nncc12 |
| 185 to 193 | Nc1c(F)c(N2CCC(CC3(N)CC3)C2)c(F)c2c1c(=O)c(C(=O)O)cn2C1CC1F (stereo not given) |
| 40 to 41 | CC(C)=CCC/C(C)=C/CC/C(C)=C/CC/C(C)=C/CON1C(=O)c2ccccc2C1=O |
| 89.5 to 90 | CC(CO)(CO)OCc1ccccc1 |
| 136 to 137 | Cc1c(NC(=O)CC(C)(C)C)cc2c(c1C)OC(C)(C)C2(O)c1cccc(C(C)C)c1 (stereo not given) |
| 96 to 98 | CC(C)(CNC(=O)Cc1ccccc1)NCC(O)c1cc(Cl)c(N)c(Cl)c1 (stereo not given) |
| 133 to 134 | CN(C)c1ccc(C(=O)N2CCN(CCc3ccc(Cl)cc3)CC2)cc1 |
| 108 | CSc1ccc(-c2nn(Cc3ccccc3)c(=S)cc2-c2ccc(F)cc2)cc1 |
| 221 to 224 | O=C(Nc1ccc(-n2cnc(Cl)c2Cl)cc1)Nc1ccc(C(F)(F)F)cc1 |
| 226 to 228 | O=C(Nc1ccc(-c2cccc(C(=O)O)c2)cc1)OCC1c2ccccc2-c2ccccc21 |
| 137 to 138 | COc1nc(C#N)c(C#N)[nH]1 |
| 150 to 152 | CCC(CC)(CCC#N)C(NC(=O)c1ccc(Cl)cc1)NC(=NC#N)Nc1cccnc1 (stereo not given) |
| 252 to 254 | CCn1ncc2c(NCc3ccccc3)c3ccc(O)cc3nc21 |
| 203 to 204 | CC(C)(C(=O)OCC(=O)c1ccccc1)n1c(=O)[nH]c2cc(Cl)ccc2c1=O |
| 133 to 136 | CC(Sc1nc(Cl)cc(NCc2ccc(Cl)cc2)n1)C(=O)O (stereo not given) |
| 208 | COC(=O)c1nc(N)sc1-c1ccccc1 |
| 150 to 157 | CC(C)(C)CC(=O)NC(Cc1ccc(OCc2ccccc2)cc1)C(=O)Nc1c(F)cc(F)cc1F (stereo not given) |
| > 250 | NCC1Cc2cc(C(F)(F)F)cc(-c3cccc(F)c3)c2O1 (stereo not given) |
| 177 to 178 | COC(=O)Nc1c(Br)cc(S(=O)(=O)N(C)C)cc1Br |

| melting point [°C] | SMILES |
| --- | --- |
| 107 to 109 | Oc1cccc2c1ccn2CCOCCC(c1ccccc1)c1ccccc1 |
| 186 to 188 | COCOC1CCN(c2ccc(NC(=O)c3cnn(-c4ccc(Cl)cc4)c3C)cc2C#N)CC1 |
| 125 | Nn1c(C(F)(F)F)cc(-c2ccc(C(F)(F)F)cc2)cc1=O |
| 244 to 245 | O=C(O)C1c2ccccc2C=Cc2ccccc21 |
| 161 to 162 | COC(=O)c1ccc(CN2N=C(C(C)(C)C)CC2=O)cc1 |
| 134 | Nc1nc(N)c2c(n1)CCC(Cc1ccccc1Cl)C2 (stereo not given) |
| 335 to 337 | COc1ccccc1-n1c(=O)[nH]c2c(C(N)=O)nc(-c3cccc4ncccc34)nc21 |
| 172 to 174 | CCc1nnc2c(Nc3ccccc3)nc3ccccc3n12 |
| 258 | COC(=O)Nc1nc2ccc(OS(=O)(=O)c3ccc(-n4ccnc4)cc3)cc2[nH]1 |
| 130 to 132 | Nc1c(CCO)cc(Cl)cc1C(O)c1ccccc1 (stereo not given) |
| 87.5 to 90.5 | CC(C)(C)SC1N(C(C(=O)OCc2ccc([N+](=O)[O-])cc2)C(=O)C(C)(C)C)C(=O)C1(C)C (stereo not given) |
| 233 to 235 | O=C(COc1ccccc1)Nc1c(Cl)ccc2nc(N3CC[C@@H](O)C3)ccc12 |
| 94 to 95 | Cc1c(C)c2c(c(C)c1N)C(c1ccccc1)CO2 (stereo not given) |
| 122 to 123 | O=C(c1ccccc1)c1ccc(OCc2ccccc2)cc1S |
| 87 to 88 | CC(=NOCCO)c1ccc(S(=O)(=O)c2ccccc2)cc1 |
| 180 to 182 | ClC1=Nc2cc(Cl)ccc2Oc2cscc21 |
| 107 to 108 | CC(C)c1ncc(CCCOc2nn(C)cc2CC(=O)O)c(Oc2ccc(Cl)cc2Cl)n1 |
| 48 to 49 | CCOC(=O)C(Cc1cccc(OCC(F)(F)F)c1)C(=O)c1ccc(F)cc1 (stereo not given) |
| 211 to 213 | Nc1nc(N)c(-c2cccc(Cl)c2Cl)c(COc2ccccc2)n1 |
| 64.7 to 65.8 | CCCCCN(CCC1CCCCC1)C(=O)NCc1ccncc1 |
| 305 to 315 | O=C(O)c1cc(-c2ccc(C(F)(F)F)cc2)cnc1O |
| 223 to 225 | c1cncc(CCCN2CCc3[nH]c4ccccc4c3C2)c1 |
| 99 to 110 | COC(=O)c1cccn2c(I)cnc12 |

| melting point [°C] | SMILES |
| --- | --- |
| 138 to 140 | COc1cc2c(cc1OC)C(C(C#N)SCCO)=NCC2 (stereo not given) |
| 341 to 344 | O=C1Nc2cc(Cl)ccc2C(=O)C1c1ccsc1 (stereo not given) |
| 136 to 137 | COP(=O)(OC)C(c1ccc(F)cc1)(c1ccc(F)cc1)c1ccc(Cl)cc1 |
| 108 | COC(=O)CCN1CCC(=C2c3sccc3CCn3ccnc32)CC1 |
| > 300 | CC(=O)Nc1cccc2c1C(=O)c1c-2n[nH]c1-c1ccncc1 |
| 219 to 227 | CN1CCN(CCC/C=C/c2ccc3c(Nc4ccc(Sc5nccn5C)c(Cl)c4)c(C#N)cnc3c2)CC1 |
| 141 to 144 | CCc1nc2c(N)nc3ccccc3c2n1CCOCCNC(=O)Nc1ccccc1 |
| 93 to 96 | O=CCC1Cc2cc(Cl)c(Cl)cc2C1=O (racemic) |
| 72 to 73 | O=c1cc(-c2ccc(F)cc2)c2ccc(Sc3cc(F)cc(C(O)(c4nccs4)C(F)(F)F)c3)cc2o1 (stereo not given) |
| 189 to 191 | CCN1c2ncc(N)cc2C(=O)N(C)c2cccnc21 |
| 75 to 77 | CCOC(=O)C1(C(=O)OCC)COC2(CC(C)(C)N(C(C)=O)C(C)(C)C2)OC1 |
| 140 | Cc1ccc(CC(C(=O)NC(Cc2ccc(C#N)cc2)C(=O)N(C)C)S(=O)(=O)Nc2cccc3ccccc23)c(C)c1 (stereo not given) |
| 220 to 222 | O=C(O)Cc1c(C(=O)c2ccc(OCc3ccccc3)cc2)[nH]c2cc(Cl)ccc12 |
| 193 | COC(=O)C1=NNC(C)=C(C(=O)OC(C)C)C1c1cccc([N+](=O)[O-])c1 (stereo not given) |
| > 250 | Nc1ccc(C=C2c3ccccc3CCc3ccccc32)cc1 |
| 199 to 200 | CC(C)(C)c1ccc(C(NC(=O)c2c(F)cccc2F)N2CCOCC2)cc1 (stereo not given) |
| 65 to 67 | CCOC(=O)Cc1c(C(=O)OCC)c(CC)cn1C |
| 215 to 217 | CS(=O)(=O)N1CC2(COc3cc4c(cc32)OCO4)c2ccccc21 (stereo not given) |
| 297 to 298 | O=C(O)c1ccc(-c2cc(-c3ccccc3)on2)cc1 |
| 135 to 136 | CCCCOc1ccc(OCCN2CCN(c3cc(Cl)nnc3Cl)CC2)cc1 |
| 200 to 202 | CN1C2=NCCN2C(=O)c2cc(Cl)ccc21 |
| 132 to 133 | Clc1cc(NCCc2ccccc2)c2ccccc2n1 |
| 191 to 194 | CCNC1([C@@H]2CCN(c3ccc4c(=O)c(C(=O)O)cn([C@@H]5C[C@@H]5F)c4c3C)C2)CC1 |

| melting point [°C] | SMILES |
| --- | --- |
| 117 to 118 | CCOC(=O)N1CCC(Oc2ccccc2)(c2ccccc2)CC1 |
| 123 to 124 | CC(C)C[C@H](NC(=O)OCc1ccc(Cl)cc1)C(=O)N[C@@H](Cc1ccccc1)C(=O)CSCc1ccco1 |
| 99 to 101 | Fc1ccc2nc(Cl)ccc2c1 |
| 280 to 282 | CC(=O)NC1CCCN(c2c(F)cc3c(=O)c(C(=O)O)cn(C4CC4)c3c2F)C1 (stereo not given) |
| 82 to 83 | COC(=O)c1cc(NS(C)(=O)=O)ccc1OC |
| 91 to 92.5 | CC(=O)N1CCCSC1=C[N+](=O)[O-] |
| 279 to 280 | O=C(O)c1cc2cc(F)c(F)cc2[nH]1 |
| 170 to 174 | CC1Cc2cc3c(cc2C(C=Cc2ccc(F)cc2)=NN1)OCO3 (stereo not given) |
| 145 to 150 | CN(C)S(=O)(=O)Cc1ccccc1S(N)(=O)=O |
| 108 to 114 | O=C(C1COc2ccc([N+](=O)[O-])cc21)N1CCCCC1 (stereo not given) |
| 145 to 147 | Cc1cc(OCc2nc3ccccc3s2)ccc1[N+](=O)[O-] |
| 116 to 118 | CC(O)(C#Cc1ccc(C(=O)c2ccccn2)cc1)C(F)(F)F (stereo not given) |
| 247 to 248 | CC(C)(C)OC(=O)CNc1nccc(-c2nc(=O)c3ccccc3s2)n1 |
| 132 | Cc1cc(C)c(Oc2cc(Nc3ccc(C#N)cc3)c([N+](=O)[O-])cc2[N+](=O)[O-])c(C)c1 |
| 60 | Cc1nc2cc(-c3ccco3)ccc2o1 |
| 218 | Cc1ccc(C(=O)c2ccc(O)c(CC(=O)O)c2)cc1 |
| 266 | CCOc1ccc(OCC(N)=O)c(C(Nc2ccc(C(=N)N)cc2)C(=O)O)c1 (racemic) |
| 106 | CC(C)C(C)(C)C(O)C(Cc1ccc(Cl)cc1)n1cncn1 (stereo not given) |
| 61 to 62 | CCCCCCC(=Cc1ccccc1)C(O)Cc1nc(C)c(C)nc1C (stereo not given) |
| 157 to 159 | Nc1nnc(N2CCN(C(=O)OCc3ccccc3)CC2)[nH]1 |

| SMILES | melting point [°C] |
| --- | --- |
| O=C(Nc1ccc(N(CCCl)CCCl)cc1)Nc1cc(CO)cc(Nc2c3ccccc3nc3ccccc23)c1 | 173 to 175 |
| O=C(Nc1cccc(OC(F)(F)F)c1)NC1N=C(c2ccccc2F)c2ccccc2N(CC(=O)N2CC3CCC(CC3)C2)C1=O (racemic) | 156 to 164 |
| CCCN1CCc2c(NC(C)=O)ccc(Br)c2C1 | 144 to 145 |
| C#CC1CC2(CC#CC)C(O)CCC2C2C=CC3=CC(=O)CCC3C12 (stereo not given) | 195 to 198 |
| CC1(C)CCC(C)(C)c2cc(-c3cn(-c4ccc(C(=O)O)cc4)c(S)n3)ccc21 | 170 to 172 |
| CSCCC(NC(C)=O)C(=O)N1CC1C#N (stereo not given) | 86 to 88 |
| CN(C)C1(c2ccccc2)CCC(CC(=O)N2CCC(c3c[nH]c4ccccc34)C2)CC1 (stereo not given) | 98 to 100 |
| Oc1ccc2nc(CCl)oc2c1 | 148 to 154 |
| Nc1cc(NC(=O)c2cc3cc(F)ccc3n2Cc2cccc(F)c2)ccn1 | 217 to 218 |
| CC1(C)CCC(C)(C)c2c(CC#Cc3ccc(C(=O)O)cc3)cc(-c3ccccc3)cc21 | 228 |
| CN(C)C1CCc2c(ccc(O)c2C(N)=O)C1 (stereo not given) | 65 to 66 |
